Values of other authors as cited in US20230051463A1, “Methotrexate Dosage Form” (ROS Therapeutics ApS, priority 2020, published 2023).
Like-named read-outs stand apart in the source and are kept apart here.

Legend:
[1] = oral

SMILES | solubility in water | AUC(0-24) Geometric LS Mean ([1]; Methotrexate 10 mg) | Cmax Geometric LS Mean ([1]; Methotrexate 10 mg) | AUC(0-24) Geometric LS Mean ([1]; Methotrexate 15 mg) | Cmax Geometric LS Mean ([1]; Methotrexate 15 mg) | AUC(0-24) Geometric LS Mean ([1]; Methotrexate 20 mg) | Cmax Geometric LS Mean ([1]; Methotrexate 20 mg) | AUC(0-24) Geometric LS Mean ([1]; Methotrexate 25 mg) | Cmax Geometric LS Mean ([1]; Methotrexate 25 mg)
CN(Cc1cnc2nc(N)nc(N)c2n1)c1ccc(C(=O)N[C@@H](CCC(=O)O)C(=O)O)cc1 [Methotrexate] | practically insoluble |  |  |  |  |  |  |  | 
CN(Cc1cnc2nc(N)nc(N)c2n1)c1ccc(C(=O)N[C@@H](CCC(=O)[O-])C(=O)[O-])cc1.[Na+].[Na+] [Methotrexate disodium] | freely soluble |  |  |  |  |  |  |  | 
CN(Cc1cnc2nc(N)nc(N)c2n1)c1ccc(C(=O)N[C@@H](CCC(=O)O)C(=O)O)cc1 [Oral MTX] |  | 1223.7 ng·h/mL | 247.2 ng/mL | 1752.0 ng·h/mL | 349.4 ng/mL | 1927.2 ng·h/mL | 440.4 ng/mL | 1987.8 ng·h/mL | 423.5 ng/mL
